From article PMC5218480 (PLoS ONE, 2017)

Test system: MV-4-11 cells
Assay: Gene expression microarray analysis (Affymetrix PrimeView) and GSEA
Format: cell-based, human
Set-up: RFU PODN (11730768_x_at) / Fold change /veh PODN (11730768_x_at) / RFU LINC00158 (11744669_a_at) / Fold change /veh LINC00158 (11744669_a_at) / RFU DUSP10 (11751237_a_at) / Fold change /veh DUSP10 (11751237_a_at) / RFU ID3 (11757404_x_at) / Fold change /veh ID3 (11757404_x_at) / RFU PLEKHG5 (11737974_s_at) / Fold change /veh PLEKHG5 (11737974_s_at) / RFU LRRC4B (11730491_at) / Fold change /veh LRRC4B (11730491_at) / RFU GIMAP4 (11747438_a_at) / Fold change /veh GIMAP4 (11747438_a_at) / RFU KRT8 (11758183_x_at) / Fold change /veh KRT8 (11758183_x_at) / RFU CNN1 (11734310_a_at) / Fold change /veh CNN1 (11734310_a_at) / RFU VPS37D (11726825_at) / Fold change /veh VPS37D (11726825_at) / RFU C10orf10 (11716522_x_at) / Fold change /veh C10orf10 (11716522_x_at) / RFU KIR2DL2 /// KIR2DL4 /// KIR2DL5A /// KIR2DL5B /// KIR2DS1 /// KIR2DS2 /// KIR2DS3 /// KIR2DS4 /// KIR3DL3 /// KIR3DL3 /// KIR3DS1 (11738374_at) / Fold change /veh KIR2DL2 /// KIR2DL4 /// KIR2DL5A /// KIR2DL5B /// KIR2DS1 /// KIR2DS2 /// KIR2DS3 /// KIR2DS4 /// KIR3DL3 /// KIR3DL3 /// KIR3DS1 (11738374_at) / RFU C1QL1 (11718748_at) / Fold change /veh C1QL1 (11718748_at) / RFU TMPRSS4 (11747572_a_at) / Fold change /veh TMPRSS4 (11747572_a_at) / RFU HAMP (11756126_x_at) / Fold change /veh HAMP (11756126_x_at) / RFU RNFT2 (11725882_a_at) / Fold change /veh RNFT2 (11725882_a_at) / RFU NR4A2 (11747474_a_at) / Fold change /veh NR4A2 (11747474_a_at) / RFU ABCC12 (11746883_a_at) / Fold change /veh ABCC12 (11746883_a_at) / RFU TMEM136 (11760407_x_at) / Fold change /veh TMEM136 (11760407_x_at) / RFU CLDN22 /// WWC2 (11732394_at) / Fold change /veh CLDN22 /// WWC2 (11732394_at) / RFU HLA-DPB1 (11760878_x_at) / Fold change /veh HLA-DPB1 (11760878_x_at) / RFU SPINT1 (11716480_a_at) / Fold change /veh SPINT1 (11716480_a_at) / RFU GAP43 (11754022_s_at) / Fold change /veh GAP43 (11754022_s_at) / RFU A4GNT (11735810_at) / Fold change /veh A4GNT (11735810_at) / RFU PRB3 (11715151_x_at) / Fold change /veh PRB3 (11715151_x_at) / RFU TUBB4B (11761932_at) / Fold change /veh TUBB4B (11761932_at) / RFU CAPN14 (11732068_a_at) / Fold change /veh CAPN14 (11732068_a_at) / RFU TMCC2 (11721928_a_at) / Fold change /veh TMCC2 (11721928_a_at) / RFU IRGQ (11745062_a_at) / Fold change /veh IRGQ (11745062_a_at) / RFU FAM174B (11720279_a_at) / Fold change /veh FAM174B (11720279_a_at) / RFU TMPRSS4 (11748680_a_at) / Fold change /veh TMPRSS4 (11748680_a_at) / RFU FAM212B (11763350_a_at) / Fold change /veh FAM212B (11763350_a_at) / RFU PLEKHG5 (11743358_a_at) / Fold change /veh PLEKHG5 (11743358_a_at) / RFU ZSCAN30 (11745921_a_at) / Fold change /veh ZSCAN30 (11745921_a_at) / RFU CMKLR1 (11741424_a_at) / Fold change /veh CMKLR1 (11741424_a_at) / RFU LOC101060620 /// MAPK8IP1 (11723275_at) / Fold change /veh LOC101060620 /// MAPK8IP1 (11723275_at) / RFU SPTSSB (11747773_x_at) / Fold change /veh SPTSSB (11747773_x_at) / RFU PRSS12 (11739890_at) / Fold change /veh PRSS12 (11739890_at) / RFU BIN1 (11741810_x_at) / Fold change /veh BIN1 (11741810_x_at) / RFU WNT11 (11732464_a_at) / Fold change /veh WNT11 (11732464_a_at) / RFU C10orf10 (11716521_a_at) / Fold change /veh C10orf10 (11716521_a_at) / RFU C5orf56 (11738089_at) / Fold change /veh C5orf56 (11738089_at) / RFU CYB561 (11721691_x_at) / Fold change /veh CYB561 (11721691_x_at) / RFU ANKRD19P (11752326_a_at) / Fold change /veh ANKRD19P (11752326_a_at) / RFU OR2T12 /// OR2T33 /// OR2T8 (11738714_s_at) / Fold change /veh OR2T12 /// OR2T33 /// OR2T8 (11738714_s_at) / RFU VCAN (11748164_a_at) / Fold change /veh VCAN (11748164_a_at) / RFU JSRP1 (11732532_at) / Fold change /veh JSRP1 (11732532_at) / RFU KRTAP10-11 (11738290_x_at) / Fold change /veh KRTAP10-11 (11738290_x_at) / RFU MYO3A (11730013_a_at) / Fold change /veh MYO3A (11730013_a_at) / RFU EBF3 (11725865_a_at) / Fold change /veh EBF3 (11725865_a_at) / RFU CAMK2N1 (11719241_x_at) / Fold change /veh CAMK2N1 (11719241_x_at) / RFU C5orf56 (11738088_a_at) / Fold change /veh C5orf56 (11738088_a_at) / RFU OLFML3 (11715873_a_at) / Fold change /veh OLFML3 (11715873_a_at) / RFU LOC100653217 /// NTM (11731650_a_at) / Fold change /veh LOC100653217 /// NTM (11731650_a_at) / RFU MAPK11 (11762145_a_at) / Fold change /veh MAPK11 (11762145_a_at) / RFU FIZ1 (11724087_x_at) / Fold change /veh FIZ1 (11724087_x_at) / RFU OASL (11726364_x_at) / Fold change /veh OASL (11726364_x_at) / RFU SOX15 (11748057_x_at) / Fold change /veh SOX15 (11748057_x_at) / RFU CD79A (11719716_a_at) / Fold change /veh CD79A (11719716_a_at) / RFU HIST1H1D (11736915_at) / Fold change /veh HIST1H1D (11736915_at) / RFU CASKIN2 (11723855_a_at) / Fold change /veh CASKIN2 (11723855_a_at) / RFU LOC730098 (11760151_x_at) / Fold change /veh LOC730098 (11760151_x_at) / RFU OR4N2 (11742367_at) / Fold change /veh OR4N2 (11742367_at) / RFU PRRT2 (11749266_a_at) / Fold change /veh PRRT2 (11749266_a_at) / RFU SNX32 (11753110_a_at) / Fold change /veh SNX32 (11753110_a_at) / RFU CDHR5 (11726645_a_at) / Fold change /veh CDHR5 (11726645_a_at) / RFU RCAN1 (11760418_a_at) / Fold change /veh RCAN1 (11760418_a_at) / RFU FAM167A (11723789_a_at) / Fold change /veh FAM167A (11723789_a_at) / RFU FAM26E (11764081_at) / Fold change /veh FAM26E (11764081_at) / RFU ISYNA1 (11749810_s_at) / Fold change /veh ISYNA1 (11749810_s_at) / RFU ACY1 (11761880_at) / Fold change /veh ACY1 (11761880_at) / RFU 11764098_at / Fold change /veh 11764098_at / RFU SAMD14 (11745864_x_at) / Fold change /veh SAMD14 (11745864_x_at) / RFU NPB (11741838_a_at) / Fold change /veh NPB (11741838_a_at) / RFU TMPRSS6 (11731388_a_at) / Fold change /veh TMPRSS6 (11731388_a_at) / RFU KRTAP10-2 (11738614_at) / Fold change /veh KRTAP10-2 (11738614_at) / RFU ARHGAP8 /// PRR5-ARHGAP8 (11727945_x_at) / Fold change /veh ARHGAP8 /// PRR5-ARHGAP8 (11727945_x_at) / RFU KRTAP5-7 /// NADSYN1 (11734609_at) / Fold change /veh KRTAP5-7 /// NADSYN1 (11734609_at) / RFU RASL12 (11751679_a_at) / Fold change /veh RASL12 (11751679_a_at) / RFU CDKN2B (11736163_a_at) / Fold change /veh CDKN2B (11736163_a_at) / RFU PRF1 (11729649_at) / Fold change /veh PRF1 (11729649_at) / RFU, ZNF638 /// ZNF638-IT1 / Fold change vs veh, ZNF638 /// ZNF638-IT1 / RFU, PANK3 / Fold change vs veh, PANK3 / RFU, SH3YL1 / Fold change vs veh, SH3YL1 / RFU, ZEB2 / Fold change vs veh, ZEB2 / RFU, NRIP1 / Fold change vs veh, NRIP1 / RFU, PTTG1IP / Fold change vs veh, PTTG1IP / RFU, CAPN2 / Fold change vs veh, CAPN2 / RFU, MED14 / Fold change vs veh, MED14 / RFU, SNORA58 / Fold change vs veh, SNORA58 / RFU, C1orf63 / Fold change vs veh, C1orf63 / RFU, LRRFIP1 / Fold change vs veh, LRRFIP1 / RFU, NDUFAF7 / Fold change vs veh, NDUFAF7 / RFU, SLC12A2 / Fold change vs veh, SLC12A2 / RFU, IBTK / Fold change vs veh, IBTK / RFU, ESF1 / Fold change vs veh, ESF1 / Fold change vs veh, TMEM50B / RFU, TAOK1 / Fold change vs veh, TAOK1 / RFU, ACBD3 / Fold change vs veh, ACBD3 / RFU, TMA16 / Fold change vs veh, TMA16 / RFU, RWDD3 / Fold change vs veh, RWDD3 / RFU, BCAT1 / Fold change vs veh, BCAT1 / RFU, EDEM3 / Fold change vs veh, EDEM3 / RFU, TMEM33 / Fold change vs veh, TMEM33 / RFU, WDR75 / Fold change vs veh, WDR75 / RFU, AHCTF1 / Fold change vs veh, AHCTF1 / RFU, TFRC / Fold change vs veh, TFRC / RFU, ZDHHC17 / Fold change vs veh, ZDHHC17 / RFU, NOM1 / Fold change vs veh, NOM1 / RFU, ARL8B / Fold change vs veh, ARL8B / RFU, ZBTB11 / Fold change vs veh, ZBTB11 / RFU, TAMM41 / Fold change vs veh, TAMM41 / RFU, KIAA1704 /// LOC100996395 / Fold change vs veh, KIAA1704 /// LOC100996395 / RFU, ING1 / Fold change vs veh, ING1 / RFU, TRMT61B / Fold change vs veh, TRMT61B / RFU, FUBP3 / Fold change vs veh, FUBP3 / RFU, TP53 / Fold change vs veh, TP53 / RFU, TNKS2 / Fold change vs veh, TNKS2 / RFU, ZFP14 / Fold change vs veh, ZFP14 / RFU, ACTR2 / Fold change vs veh, ACTR2 / RFU, PPP3R1 / Fold change vs veh, PPP3R1 / RFU, PIK3R1 / Fold change vs veh, PIK3R1 / RFU, HNRNPA1 / Fold change vs veh, HNRNPA1 / RFU, RNF170 / Fold change vs veh, RNF170 / RFU, ZNF28 / Fold change vs veh, ZNF28 / RFU, RNGTT / Fold change vs veh, RNGTT / RFU, OGT / Fold change vs veh, OGT / RFU, BRD1 / Fold change vs veh, BRD1 / RFU, MARS / Fold change vs veh, MARS / RFU, ZNF655 / Fold change vs veh, ZNF655 / RFU, FAHD1 / Fold change vs veh, FAHD1 / RFU, BDP1 / Fold change vs veh, BDP1 / RFU, LRRCC1 / Fold change vs veh, LRRCC1 / RFU, ARID1A / Fold change vs veh, ARID1A / RFU, ZNF146 / Fold change vs veh, ZNF146 / RFU, ZNF330 / Fold change vs veh, ZNF330 / RFU, GPN3 / Fold change vs veh, GPN3 / RFU, C9orf123 / Fold change vs veh, C9orf123 / RFU, N4BP2L2 / Fold change vs veh, N4BP2L2 / RFU, ARFIP1 / Fold change vs veh, ARFIP1 / RFU, FAM179B / Fold change vs veh, FAM179B / RFU, BCL10 / Fold change vs veh, BCL10 / RFU, UHRF1BP1L / Fold change vs veh, UHRF1BP1L / RFU, BET1 / Fold change vs veh, BET1 / RFU, CNOT2 / Fold change vs veh, CNOT2 / RFU, ZNF268 / Fold change vs veh, ZNF268 / Fold change vs veh, ZNF507 / RFU, DGCR2 / Fold change vs veh, DGCR2 / RFU, WDSUB1 / Fold change vs veh, WDSUB1 / Fold change vs veh, HSP90B1 /// MIR3652 / RFU, ADSS / Fold change vs veh, ADSS / RFU, GK / Fold change vs veh, GK / RFU, ZNF148 / Fold change vs veh, ZNF148 / RFU, TAF9 / Fold change vs veh, TAF9 / RFU, SLC1A5 / Fold change vs veh, SLC1A5 / RFU, SLMO2 / Fold change vs veh, SLMO2 / RFU, ABCC4 / Fold change vs veh, ABCC4 / RFU, LOC101060439 /// RAP1B / Fold change vs veh, LOC101060439 /// RAP1B / RFU, RFX7 / Fold change vs veh, RFX7 / RFU, GTPBP10 / Fold change vs veh, GTPBP10 / RFU, CNEP1R1 / Fold change vs veh, CNEP1R1 / RFU, BIVM-ERCC5 /// ERCC5 / Fold change vs veh, BIVM-ERCC5 /// ERCC5 / RFU, ILF3 / Fold change vs veh, ILF3 / RFU 11762660_at / Fold change /veh 11762660_at / RFU VCAN (11757783_s_at) / Fold change /veh VCAN (11757783_s_at) / RFU DDX43 (11728927_at) / Fold change /veh DDX43 (11728927_at) / RFU KRT8 (11758188_x_at) / Fold change /veh KRT8 (11758188_x_at) / RFU NKD1 (11759106_at) / Fold change /veh NKD1 (11759106_at) / RFU SRD5A1 (11742802_a_at) / Fold change /veh SRD5A1 (11742802_a_at) / RFU TPSAB1 /// TPSB2 (11721975_s_at) / Fold change /veh TPSAB1 /// TPSB2 (11721975_s_at) / RFU GSTM3 (11746129_a_at) / Fold change /veh GSTM3 (11746129_a_at) / RFU IL23R (11737362_x_at) / Fold change /veh IL23R (11737362_x_at) / RFU TMEM51 (11727254_a_at) / Fold change /veh TMEM51 (11727254_a_at) / RFU PIWIL2 (11732686_x_at) / Fold change /veh PIWIL2 (11732686_x_at) / RFU ORM1 (11744905_x_at) / Fold change /veh ORM1 (11744905_x_at) / RFU CCDC152 (11743942_at) / Fold change /veh CCDC152 (11743942_at) / RFU ECM1 (11717891_a_at) / Fold change /veh ECM1 (11717891_a_at) / RFU IL23R (11748794_a_at) / Fold change /veh IL23R (11748794_a_at) / RFU TNFAIP8L3 (11732012_x_at) / Fold change /veh TNFAIP8L3 (11732012_x_at) / RFU MBOAT4 (11741988_at) / Fold change /veh MBOAT4 (11741988_at) / RFU 11764193_at / Fold change /veh 11764193_at / RFU TMEM53 (11763286_at) / Fold change /veh TMEM53 (11763286_at) / RFU MAGEB2 (11727129_at) / Fold change /veh MAGEB2 (11727129_at) / RFU TMEM200A (11744735_a_at) / Fold change /veh TMEM200A (11744735_a_at) / RFU CCDC152 (11751479_a_at) / Fold change /veh CCDC152 (11751479_a_at) / RFU FAM211A (11726209_a_at) / Fold change /veh FAM211A (11726209_a_at) / RFU RGS16 (11746705_a_at) / Fold change /veh RGS16 (11746705_a_at) / RFU VCAN (11755009_s_at) / Fold change /veh VCAN (11755009_s_at) / RFU RHOB (11743442_s_at) / Fold change /veh RHOB (11743442_s_at) / RFU RGS16 (11720943_a_at) / Fold change /veh RGS16 (11720943_a_at) / RFU RGS16 (11720944_at) / Fold change /veh RGS16 (11720944_at) / RFU, VPS4B / Fold change vs veh, VPS4B / RFU, CREB1 / Fold change vs veh, CREB1 / RFU, DNAJC13 / Fold change vs veh, DNAJC13 / RFU, GNAQ / Fold change vs veh, GNAQ / RFU, CDK5R1 / Fold change vs veh, CDK5R1 / RFU, ZRANB3 / Fold change vs veh, ZRANB3 / RFU, CUL4A / Fold change vs veh, CUL4A / RFU, CCNY / Fold change vs veh, CCNY / RFU, UFL1 / Fold change vs veh, UFL1 / RFU, COG3 / Fold change vs veh, COG3 / RFU, DIAPH2 / Fold change vs veh, DIAPH2 / RFU, SKA2 / Fold change vs veh, SKA2 / RFU, AFF3 / Fold change vs veh, AFF3 / RFU, LMF1 / Fold change vs veh, LMF1 / RFU, IPO11 / Fold change vs veh, IPO11 / RFU, DFFB / Fold change vs veh, DFFB / RFU, FOXP1 / Fold change vs veh, FOXP1 / RFU, CARD8 / Fold change vs veh, CARD8 / RFU, STRN3 / Fold change vs veh, STRN3 / RFU, ADK / Fold change vs veh, ADK / RFU, RASSF2 / Fold change vs veh, RASSF2 / RFU, WIPF1 / Fold change vs veh, WIPF1 / RFU, LARP1B / Fold change vs veh, LARP1B / RFU, RASA1 / Fold change vs veh, RASA1 / RFU, RB1 / Fold change vs veh, RB1 / RFU, PPFIA1 / Fold change vs veh, PPFIA1 / RFU, MAT2A / Fold change vs veh, MAT2A / RFU, CCT5 / Fold change vs veh, CCT5 / RFU, WDR92 / Fold change vs veh, WDR92 / RFU, CUX1 / Fold change vs veh, CUX1 / RFU, TTC7A / Fold change vs veh, TTC7A / RFU, TMEM135 / Fold change vs veh, TMEM135 / RFU, DEPTOR / Fold change vs veh, DEPTOR / RFU, CPM / Fold change vs veh, CPM / RFU, DNAJB6 / Fold change vs veh, DNAJB6 / RFU, CACNA2D3 / Fold change vs veh, CACNA2D3 / RFU, DTX4 / Fold change vs veh, DTX4 / RFU, TFCP2 / Fold change vs veh, TFCP2 / RFU, GMCL1 /// GMCL1P1 / Fold change vs veh, GMCL1 /// GMCL1P1 / RFU, AEBP2 / Fold change vs veh, AEBP2 / RFU, SNHG1 /// SNORD22 /// SNORD25 /// SNORD26 /// SNORD27 /// SNORD28 /// SNORD29 /// SNORD31 / Fold change vs veh, SNHG1 /// SNORD22 /// SNORD25 /// SNORD26 /// SNORD27 /// SNORD28 /// SNORD29 /// SNORD31 / Fold change (Aza/veh), C12orf56 (ProbeSet 11735607_a_at) / Fold change (ACY-1035/veh), C12orf56 (ProbeSet 11735607_a_at) / Fold change (Aza/veh), FGFR1OP (ProbeSet 11751329_s_at) / Fold change (ACY-1035/veh), FGFR1OP (ProbeSet 11751329_s_at) / Fold change (Aza/veh), VPS36 (ProbeSet 11739960_a_at) / Fold change (ACY-1035/veh), VPS36 (ProbeSet 11739960_a_at) / RFU SYPL1 (11715823_x_at) / Fold change /veh SYPL1 (11715823_x_at) / RFU IGFBP7 (11715501_s_at) / Fold change /veh IGFBP7 (11715501_s_at) / RFU REEP3 (11722064_at) / Fold change /veh REEP3 (11722064_at) / RFU IGLL1 (11728026_x_at) / Fold change /veh IGLL1 (11728026_x_at): dose or concentration left out as unconfirmed
Details: ProbeSet 11716865_a_at; LIST B

Nc1ncn([C@@H]2O[C@H](CO)[C@@H](O)[C@H]2O)c(=O)n1 [azacitidine]
Fold change vs veh, SLC1A5: 0.87
